Marks after values point to notes of the source that are not given here.
B1: Delta1^Ext-IgG: engineered Notch ligand: extracellular domain of Delta1 fused to the Fc portion of human IgG1, immobilized on tissue culture flasks (protein)
chain: QVWSSGVFELKLQEFVNKKGLLGNRNCCRGGAGPPPCACRTFFRVCLKHYQASVSPEPPCTYGSAVTPVLGVDSFSLPDGGGADSAFSNPIRFPFGFTWPGTFSLIIEALHTDSPDDLATENPERLISRLATQRHLTVGEEWSQDLHSSGRTDLKYSYRFVCDEHYYGEGCSVFCRPRDDAFGHFTCGERGEKVCNPGWKGPYCTEPICLPGCDEQHGFCDKPGECKCRVGWQGRYCDECIRYPGCLHGTCQQPWQCNCQEGWGGLFCNQDLNYCTHHKPCKNGATCTNTGQGSYTCSCRPGYTGATCELGIDECDPSPCKNGGSCTDLENSYSCTCPPGFYGKICELSAMTCADGPCFNGGRCSDSPDGGYSCRCPVGYSGFNCEKKIDYCSSSPCSNGAKCVDLGDAYLCRCQAGFSGRHCDDNVDDCASSPCANGGTCRDGVNDFSCTCPPGYTGRNCSAPVSRCEHAPCHNGATCHERGHRYVCECARGYGGPNCQFLLPELPPGPAVVDLTEKLEGQGGPFPW
modifications: left off: a dimerising Fc or GST
notes: engineered Notch ligand: extracellular domain of Delta1 fused to the Fc portion of human IgG1, immobilized on tissue culture flasks

Legend:
[1] = test system: mobilized peripheral blood stem cells (mPBSC); experiment: Ex vivo culture of mobilized peripheral blood stem cells; assay type: cell-based, human; details: mPBSC cultured 16 days
Description: (§1) Human cord blood samples for research were obtained from normal deliveries under Swedish Medical Center Institutional Review Board (Seattle) approval and after consent was obtained. The units were incubated in ammonium chloride red blood cell lysis buffer (consisting of 16.6 g NH4Cl, 2 g NaHCO3 and 74.4 mg EDTA per 2L of water) and resuspended in PBS with 2% human AB serum. Cells were incubated with CD34 Microbeads from Miltenyi Biotec and purified with an Automacs (Miltenyi Biotec). Cells were then frozen and thawed at time of use with PBS+1% FBS. Pools of 2 or more cord blood units were used for all experiments. Peripheral blood stem cells (PBSC) were obtained from a single donor and cryopreserved after CD34^+ cell selection.
Cells were cultured for 16 days in non-tissue-cultured-treated tissue culture flasks (25, 75, and 175-cm^2). Flasks were precoated with Delta1^ext-IgG (ligand preparation described in Delaney C. et al., 2005, Blood 106(8):2693-2699; and Varnum-Finney et al., 2000, J. Cell Science 113: 4313-4318), or human control IgG at 2.5 μg/ml and retronectin 5 μg/ml. Delta1^ext-IgG titrations were performed with concentrations of 0.5, 1.25 (for PBSC), 2.5, or 5 μg/ml. Flasks were incubated at 4° C. overnight or 37° C. for 2 hours and then washed with PBS and blocked with PBS 2% BSA for 30 minutes at 37° C. […]

HSPC = details: culturing HSPC with SR1; cited from earlier work
CD34^+ cord blood HSPC = details: culturing HSPC with SR1; cited from earlier work
CD34^+ CB HSPC [2] = experiment: Ex vivo culture/expansion of CD34+ cord blood HSPC, cell counts and flow cytometric phenotype; assay type: cell-based, human; details: for CD34 expansion compared to IgG control: 7, 14, 18 and 21 days in culture, alone groups: data not shown
Description: as §1
Cells were cultured for 16 days in non-tissue-cultured-treated tissue culture flasks (25, 75, and 175-cm^2). Flasks were precoated with Delta1^ext-IgG (ligand preparation described in Delaney C. et al., 2005, Blood 106(8):2693-2699; and Varnum-Finney et al., 2000, J. Cell Science 113: 4313-4318), or human control IgG at 2.5 μg/ml and retronectin 5 μg/ml. Delta1^ext-IgG titrations were performed with concentrations of 0.5, 1.25 (for PBSC), 2.5, or 5 μg/ml. Flasks were incubated at 4° C. overnight or 37° C. for 2 hours and then washed with PBS and blocked with PBS 2% BSA for 30 minutes at 37° C. Cells were cultured in StemSpan serum-free expansion medium in the presence of 4 growth factors (IL6 (50 ng/ml), thrombopoietin (50 ng/ml), Flt-3 ligand (50 ng/ml), stem cell factor (50 ng/ml)) or 5 growth factors (4 growth factors plus IL3 (10 ng/ml)). SR-1 was made fresh and added to cells with all feedings at a concentration of 750 nM. Cultures in 25-cm^2 flasks were initiated with between 7×10^4 and 1.3×10^5 CD34^+ cells. Cultures in 75-cm^2 flasks were initiated with 3×10^5 CD34^+ cells. Cells were expanded to larger flasks when they exceeded cell density >1×10^6 cells/ml. Expansions typically occurred on day 7 and 10 of culture. Fresh media with cytokines was added very 3-4 days including the day prior to transplantation.
Immunofluorescence analysis was performed as described (see Ohishi et al., 2002, J Clin Invest. 110(8): 1165-1174), with FITC-labeled antibodies against human CD3, CD14, CD15, CD33, CD34, CD90, phycoerythryin (PE)-labeled antibodies against human CD19, CD56, CD90, CD133, Glycophorin A, CXCR4, PERCP-labeled antibodies against human CD14, CD34, APC-labeled antibodies against human CD45, CD90 and PECy7 labeled antibody against mouse CD45.1.
To determine whether Delta1^Ext-IgG and SR1 in combination were successfully able to expand CD34^+ CB HSPC ex vivo, CD34^+ cell generation, an HSPC enriched population routinely used in clinical application, was assessed at multiple time points in culture as compared to IgG control. CD34^+ CB progenitors were isolated by bead selection and Automacs and then cultured for 21 days in StemSpan serum-free expansion media supplemented with cytokines (TPO, SCF, IL-6, and Flt3-ligand at 50 ng/ml). […] Cells were cultured in the presence of SR1 (750 nM) and Delta1^Ext-IgG (0.5 or 2.5 μg/ml) or an IgG control. The engineered Notch ligand, Delta1^ext-IgG, contains the extracellular domain of Delta1 fused to the Fc portion of human IgG1 and is immobilized on the plastic surface of tissue culture flasks at varying densities. Immobilization of the Fc portion of human IgG1 served as a control construct. […] CD34^+ selected cells were seeded per flask from a pool of 2 CB units. […]

CD34^+ CB HSPC [3] = experiment: In vivo repopulation: cultured progeny of CD34+ CB HSPC transplanted into sublethally irradiated NSG mice; design: species or system human; details: for human engraftment upon secondary transplantation, average CD45^+: differences not statistically significant
Description: Sublethally irradiated NOD-SCID IL-2Rγ-null mice (obtained from an established breeding colony at the Fred Hutchinson Cancer Research Center and approved for use by the Fred Hutchinson Cancer Research Center Institutional Animal Care and Use Committee) were infused with the progeny 10,000 starting CD34^+ cells per mouse via tail vein for cord blood experiments and the progeny of 20,000 for PBSC experiments. Repopulating ability of infused cells was assessed at 2-3 weeks post-transplant by bone marrow aspiration and at 13 weeks by bone marrow harvest.
Cells were cultured as described above and transplanted into sublethally irradiated immunodeficient NSG mice. Total human engraftment was defined as percent of human CD45^+ murine CD45.1^− cells based on bone marrow aspirate at 2 weeks post-transplant. Total myeloid engraftment was defined as percent human CD45^+CD33^+ murine CD45.1 cells on bone marrow aspirate at the same time point.
The progeny of 1×10^4 CD34^+ cells were then transplanted into 10 sublethally irradiated NSG mice per condition and engraftment was assessed by bone marrow aspirate at 2 weeks post-transplant. Total human engraftment was defined as percent of human CD45^+ murine CD45.1^− cells based on bone marrow aspirate at 2 weeks post-transplant. Total myeloid engraftment was defined as percent human CD45^+CD33^+ murine CD45.1^− cells on bone marrow aspirate at the same time point.
Transplants into NSG mice were performed as described above, with the cultured progeny of 1×10^4 CD34^+ cells. Cells were cultured in the presence of SR1, Delta1^Ext-IgG 2.5 μg/ml, or SR1 and Delta1^Ext-IgG (2.5 or 5 μg/ml) for 16 days.
Cells were cultured and transplanted as described above with the progeny of 1×10^4 CD34^+ cells transplanted per mouse. Total human, progenitor cell, myeloid, and lymphoid assessments were performed on bone marrow samples. Bone marrow aspirates were performed in the mice at 2 and 8 weeks post-transplant, and mice were sacrificed for bone marrow harvest at 13 weeks.

CD34^+ CB HSPC [4] = experiment: SRC frequency by limiting dilution analysis in NSG mice; assay type: in vivo, human; details: Delta1^Ext-IgG 2.5 μg/ml alone, 5 μg/ml with SR1; for No. mice engrafted, Engraftment with ≧0.5% CD34^+ cells / No. mice engrafted, Engraftment with ≧1% CD33^+ cells / No. mice engrafted, Engraftment with ≧1% CD34^+ cells / No. mice engrafted, Engraftment with ≧5% CD33^+ cells: bone marrow aspirate at 2 weeks; for CD33^+ SRC frequency per starting cell, Engraftment with ≧1% CD33^+ cells / CD33^+ SRC frequency per starting cell, Engraftment with ≧5% CD33^+ cells / CD34^+ SRC frequency per starting cell, Engraftment with ≧0.5% CD34^+ cells / CD34^+ SRC frequency per starting cell, Engraftment with ≧1% CD34^+ cells: limiting dilution analysis, maximum likelihood
Excerpt: Human cord blood (CB) samples for research were obtained from normal deliveries under Swedish Medical Center Institutional Review Board (Seattle) approval and after consent was obtained. CB samples were red blood cell depleted (Delaney et al., 2010, Nat Med 16(2):232-236), CD34 enriched using CD34^+ immunomagnetic particles (Miltenyi Biotec), purified with Automacs (Miltenyi Biotec), and cryopreserved. […] Cultures were initiated with 7×10^4 to 1.3×10^5 CD34^+ cells for 25-cm^2 flasks and with 3×10^5 CD34^+ cells for 75-cm^2 flasks. Immunofluorescence analysis was performed as described (Ohishi et al., 2002, J Clin Invest. 110(8):1165-1174) with labeled antibodies: FITC (human CD14, CD33, and Lineage); PE (human CD7, CD14, CD15, CD19, CD90, and CD123); PERCP (human CD34); APC (human CD10, CD45, IL3Ra); PECy7 (mouse CD45.1, human CD34); Alexa Fluor 700 (CD38); APC-eFluor 780 (CD45RA). Transplants were performed in sublethally irradiated (275 rad) NOD-SCID IL-2Rγ-null mice (NSG). In vivo engraftment was assessed by immunofluorescence analysis of human cell subsets (human CD45^+ murine CD45.1). On average, the total number of cells infused was 4.25×10^6/mouse for Delta1^ext-IgG alone, 1.88×10^7/mouse for SR1 alone, and 4.76×10^6/mouse for the combination. Statistical analyses were performed as indicated. For limiting dilution analysis, mice were injected with the cultured progeny of the number of CD34^+ cells indicated and bone marrow aspirates performed at 2 weeks. Two engraftment cut-offs were chosen based on percent engraftment observed in non-limiting transplantation studies. The frequency of SRCs was determined by the method of maximum likelihood with L-CALC software (StemCell Technologies) from the proportions of engrafted recipients (A, B).

[5] = patients, vs concurrent cohort receiving double cord blood transplantation of non-manipulated units; cited from earlier work

| Molecule | CD34 expansion compared to IgG control (CD34^+ CB HSPC [2]) | human engraftment upon secondary transplantation, average CD45^+ (CD34^+ CB HSPC [3]) | No. mice engrafted, Engraftment with ≧0.5% CD34^+ cells (CD34^+ CB HSPC [4]; 1000 CD34^+ cells/mouse) | No. mice engrafted, Engraftment with ≧1% CD33^+ cells (CD34^+ CB HSPC [4]; 1000 CD34^+ cells/mouse) | No. mice engrafted, Engraftment with ≧1% CD34^+ cells (CD34^+ CB HSPC [4]; 1000 CD34^+ cells/mouse) | No. mice engrafted, Engraftment with ≧5% CD33^+ cells (CD34^+ CB HSPC [4]; 1000 CD34^+ cells/mouse) | No. mice engrafted, Engraftment with ≧0.5% CD34^+ cells (CD34^+ CB HSPC [4]; 4000 CD34^+ cells/mouse) | No. mice engrafted, Engraftment with ≧1% CD33^+ cells (CD34^+ CB HSPC [4]; 4000 CD34^+ cells/mouse) | No. mice engrafted, Engraftment with ≧1% CD34^+ cells (CD34^+ CB HSPC [4]; 4000 CD34^+ cells/mouse) | No. mice engrafted, Engraftment with ≧5% CD33^+ cells (CD34^+ CB HSPC [4]; 4000 CD34^+ cells/mouse) | No. mice engrafted, Engraftment with ≧0.5% CD34^+ cells (CD34^+ CB HSPC [4]; 20000 CD34^+ cells/mouse) | No. mice engrafted, Engraftment with ≧1% CD33^+ cells (CD34^+ CB HSPC [4]; 20000 CD34^+ cells/mouse) | No. mice engrafted, Engraftment with ≧1% CD34^+ cells (CD34^+ CB HSPC [4]; 20000 CD34^+ cells/mouse) | No. mice engrafted, Engraftment with ≧5% CD33^+ cells (CD34^+ CB HSPC [4]; 20000 CD34^+ cells/mouse) | CD33^+ SRC frequency per starting cell, Engraftment with ≧1% CD33^+ cells (CD34^+ CB HSPC [4]) | CD33^+ SRC frequency per starting cell, Engraftment with ≧5% CD33^+ cells (CD34^+ CB HSPC [4]) | CD34^+ SRC frequency per starting cell, Engraftment with ≧0.5% CD34^+ cells (CD34^+ CB HSPC [4]) | CD34^+ SRC frequency per starting cell, Engraftment with ≧1% CD34^+ cells (CD34^+ CB HSPC [4]) | other results |
| --- | --- | --- | --- | --- | --- | --- | --- | --- | --- | --- | --- | --- | --- | --- | --- | --- | --- | --- | --- |
| CC(C)n1cnc2c(NCCc3ccc(O)cc3)nc(-c3csc4ccccc34)nc21 [SR1, 4-(2-(2-(benzo[b]thiophen-3-yl)-9-isopropyl-9H-purin-6-ylamino)ethyl)phenol] | enhanced CD34 expansion | 0.11% | 1/9 | 3/9 | 1/9 | 1/9 | 2/9 | 5/9 | 1/9 | 1/9 | 7/7 | 7/7 | 6/7 | 7/7 | 1/3868** | 1/10063^## | 1/8495** | 1/13514^## | TNC and CD34^+ cell expansion in vitro [1]: greatest TNC and CD34^+ cell expansion; increase in the number of cells with the ability to repopulate immunodeficient mice (HSPC): 17 fold; increase in CD34^+ cells (CD34^+ cord blood HSPC): 50 fold; total nucleated cell (TNC) expansion over IgG control and all Delta1^Ext-IgG conditions (CD34^+ CB HSPC [2]; 7-16 days in culture): enhanced; ex vivo generation of total nucleated cells (TNC) compared to Delta1^Ext-IgG (2.5 μg/ml) or SR1 and Delta1^Ext-IgG (5 μg/ml) combined (CD34^+ CB HSPC [2]; SR1 750 nM, 14 days, p<0.001, p=0.04): significantly enhanced; rapid repopulation by B-lymphoid cells (percent CD45^+CD33^-CD19^+) in comparison with Delta1^Ext-IgG alone or the combination (CD34^+ CB HSPC [3]; early time point (2 weeks)): significantly enhanced |
| B1 | enhanced CD34 expansion | 0.22% | 0/9 | 2/9 | 0/9 | 0/9 | 1/9 | 9/9 | 0/9 | 3/9 | 7/7 | 7/7 | 6/7 | 6/7 | 1/1719* | 1/11314^# | 1/11739* | 1/19121^# | reduction in time to neutrophil engraftment [5]: 50%; TNC generation with increasing densities of Delta1^Ext-IgG (CD34^+ CB HSPC [2]; day 16, SR1 with Delta1^Ext-IgG 0, 0.5, 2.5 or 5 μg/ml): decreased TNC generation in a stepwise manner |
